Results: patent US7659404B2, “Broad spectrum 2-(substituted-amino)-benzothiazole sulfonamide HIV protease inhibitors” (Tibotec Pharmaceuticals Ltd., priority 2001, dated 2010)

How the values were obtained:
virus strain S (R13080) = test: microbe, parasite or virus in culture; format: cell-based, HIV; conditions: FR=EC50(mutant strain)/EC50(HIV-1 strain LAI); strain S
How it was run: (§1)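 MT4 cells, HIV or mock infection, 5 d with compound dilutions; MTT readout, formazan in isopropanol, A540. EC50/EC90 = conc. protecting 50/90% of cells from CPE; CC50 from mock-infected cells. FR = EC50 mutant/EC50 LAI.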

virus strain F (R13025) = test: microbe, parasite or virus in culture; format: cell-based, HIV; conditions: FR=EC50(mutant strain)/EC50(HIV-1 strain LAI); strain F
How it was run: as §1

[1] = system: clinically isolated HIV strain H; format: cell-based; conditions: FR=EC50(mutant strain)/EC50(HIV-1 strain LAI)
Method: (§2) HIV- or mock-infected MT4 cells were incubated for five days in the presence of various concentrations of the inhibitor. […] Cell viability is measured by measuring the concentration of MTT, a yellow, water soluble tetrazolium dye that is converted to a purple, water insoluble formazan in the mitochondria of living cells only. Upon solubilization of the resulting formazan crystals with isopropanol, the absorbance of the solution is monitored at 540 nm. The values correlate directly to the number of living cells remaining in the culture at the completion of the five day incubation. The inhibitory activity of the compound was monitored on the virus-infected cells and was expressed as EC50 and EC90. These values represent the amount of the compound required to protect 50% and 90%, respectively, of the cells from the cytopathogenic effect of the virus. The toxicity of the compound was measured on the mock-infected cells and was expressed as CC50, which represents the concentration of compound required to inhibit the growth of the cells by 50%. The selectivity index (SI) (ratio CC50/EC50) is an indication of the selectivity of the anti-HIV activity of the inhibitor.
(§3) Because of the increasing emergence of drug resistant HIV strains, the present compounds were tested for their potency against clinically isolated HIV strains harboring several mutations.
(§4) As a measure of the broad spectrum activity of the present compounds, the fold resistance (FR) defined as FR=EC50(mutant strain)/EC50(HIV-1 strain LAI).

[2] = system: clinically isolated HIV strain O; format: cell-based; conditions: FR=EC50(mutant strain)/EC50(HIV-1 strain LAI)
Method: as §2, §3, §4

[3] = system: clinically isolated HIV strain J; format: cell-based; conditions: FR=EC50(mutant strain)/EC50(HIV-1 strain LAI)
Method: as §2, §3, §4

[4] = system: clinically isolated HIV strain T; format: cell-based; conditions: FR=EC50(mutant strain)/EC50(HIV-1 strain LAI)
Method: as §2, §3, §4

[5] = system: clinically isolated HIV strain I; format: cell-based; conditions: FR=EC50(mutant strain)/EC50(HIV-1 strain LAI)
Method: as §2, §3, §4

For CC(C)CN(C[C@@H](O)[C@H](Cc1ccccc1)NC=O)S(=O)(=O)c1ccc2nc(NC(=O)CN3CCCC3)sc2c1 [Compound 55], the “fold resistance (FR), strain S” value (virus strain S (R13080)) was 26.2, the “fold resistance (FR), strain F” value (virus strain F (R13025)) was 26.2 and the “fold resistance (FR), strain H” value [1] was 10.0. For the same compound, the “fold resistance (FR), strain O” value [2] was 26.2, the “fold resistance (FR), strain J” value [3] was 26.2 and the “fold resistance (FR), strain T” value [4] was 26.2. For the same compound, the “fold resistance (FR), strain I” value [5] was 9.1.
CC(C)CN(C[C@@H](O)[C@H](Cc1ccccc1)NC(=O)OCc1cncs1)S(=O)(=O)c1ccc2nc(NCCN3CCNCC3)sc2c1 [Compound 57] was tested, and the “fold resistance (FR), strain S” value (virus strain S (R13080)) was 1.6, the “fold resistance (FR), strain F” value (virus strain F (R13025)) was 1.3 and the “fold resistance (FR), strain H” value [1] was 1.6. For the same compound, the “fold resistance (FR), strain O” value [2] was 1.3, the “fold resistance (FR), strain J” value [3] was 1.3 and the “fold resistance (FR), strain T” value [4] was 9.0. The “fold resistance (FR), strain I” value [5] was 1.3.
With CC(C)CN(C[C@@H](O)[C@H](Cc1ccccc1)NC(=O)OCc1cccnc1)S(=O)(=O)c1ccc2nc(NCCN3CCNCC3)sc2c1 [Compound 58] the “fold resistance (FR), strain S” value (virus strain S (R13080)) was 4.4, the “fold resistance (FR), strain F” value (virus strain F (R13025)) was 2.1 and the “fold resistance (FR), strain H” value [1] was 1.6. For the same compound, the “fold resistance (FR), strain O” value [2] was 1.7, the “fold resistance (FR), strain J” value [3] was 2.0 and the “fold resistance (FR), strain T” value [4] was 27.0. The “fold resistance (FR), strain I” value [5] was 0.7.
In the case of Cc1cccc(C)c1OCC(=O)N[C@@H](Cc1ccccc1)[C@H](O)CN(CC(C)C)S(=O)(=O)c1ccc2nc(NCCN3CCNCC3)sc2c1 [Compound 59], the “fold resistance (FR), strain S” value (virus strain S (R13080)) was 4.7, the “fold resistance (FR), strain F” value (virus strain F (R13025)) was 2.3 and the “fold resistance (FR), strain H” value [1] was 1.2. The “fold resistance (FR), strain O” value [2] was 2.0, the “fold resistance (FR), strain J” value [3] was 1.7 and the “fold resistance (FR), strain T” value [4] was 22.2. For the same compound, the “fold resistance (FR), strain I” value [5] was 1.2.
Cc1c(N)cccc1C(=O)N[C@@H](Cc1ccccc1)[C@H](O)CN(CC(C)C)S(=O)(=O)c1ccc2nc(NCCN3CCNCC3)sc2c1 [Compound 60] was tested, and the “fold resistance (FR), strain S” value (virus strain S (R13080)) was 1.4, the “fold resistance (FR), strain F” value (virus strain F (R13025)) was 1.2 and the “fold resistance (FR), strain H” value [1] was 1.3. For the same compound, the “fold resistance (FR), strain O” value [2] was 1.1, the “fold resistance (FR), strain J” value [3] was 0.6 and the “fold resistance (FR), strain T” value [4] was 4.1. The “fold resistance (FR), strain I” value [5] was 1.3.
With CC(C)CN(C[C@@H](O)[C@H](Cc1ccccc1)NC(=O)OCc1cccnc1)S(=O)(=O)c1ccc2nc(NC(=O)CN3CCCC3)sc2c1 [Compound 61] the “fold resistance (FR), strain S” value (virus strain S (R13080)) was 80.0, the “fold resistance (FR), strain F” value (virus strain F (R13025)) was 32.7 and the “fold resistance (FR), strain H” value [1] was 5.2. The “fold resistance (FR), strain O” value [2] was 7.1, the “fold resistance (FR), strain J” value [3] was 10.6 and the “fold resistance (FR), strain T” value [4] was 1090.0. The “fold resistance (FR), strain I” value [5] was 4.8.
For Cc1c(N)cccc1C(=O)N[C@@H](Cc1ccccc1)[C@H](O)CN(CC(C)C)S(=O)(=O)c1ccc2nc(NC(=O)CN3CCCC3)sc2c1 [Compound 62], the “fold resistance (FR), strain S” value (virus strain S (R13080)) was 16.1, the “fold resistance (FR), strain F” value (virus strain F (R13025)) was 14.5 and the “fold resistance (FR), strain H” value [1] was 3.2. For the same compound, the “fold resistance (FR), strain O” value [2] was 2.7, the “fold resistance (FR), strain J” value [3] was 2.4 and the “fold resistance (FR), strain T” value [4] was 277.9. The “fold resistance (FR), strain I” value [5] was 2.8.
Cc1c(N)cccc1C(=O)N[C@@H](Cc1ccccc1)[C@H](O)CN(CC(C)C)S(=O)(=O)c1ccc2nc(NC(=O)CN3CCN(C)CC3)sc2c1.O=C(O)C(F)(F)F [Compound 66] was tested, and the “fold resistance (FR), strain S” value (virus strain S (R13080)) was 5.6, the “fold resistance (FR), strain F” value (virus strain F (R13025)) was 4.0 and the “fold resistance (FR), strain H” value [1] was 0.9. The “fold resistance (FR), strain O” value [2] was 1.0, the “fold resistance (FR), strain J” value [3] was 1.2 and the “fold resistance (FR), strain T” value [4] was 87.9. The “fold resistance (FR), strain I” value [5] was 1.0.
In the case of CC(C)CN(C[C@@H](O)[C@H](Cc1ccccc1)NC(=O)O[C@H]1CCOC1)S(=O)(=O)c1ccc2nc(NCCN3CCCC3)sc2c1.O=C(O)C(F)(F)F [Compound 68], the “fold resistance (FR), strain S” value (virus strain S (R13080)) was 180.7, the “fold resistance (FR), strain F” value (virus strain F (R13025)) was 65.2 and the “fold resistance (FR), strain H” value [1] was 7.3. For the same compound, the “fold resistance (FR), strain O” value [2] was 3.5, the “fold resistance (FR), strain J” value [3] was 3.9 and the “fold resistance (FR), strain T” value [4] was 775.2. The “fold resistance (FR), strain I” value [5] was 2.4.
